Laboratory results reported in patent publication US20120190669A1, “OXINDOLE COMPOUNDS” (CYLENE PHARMACEUTICALS, INC., priority 2008, published 2012).
Where two headings read alike, the source gives them in different places.

Assays:
[1] = test system: MiaPaca human pancreatic carcinoma cells; experiment: Alamar Blue cell proliferation assay, MiaPaCa; format: cell-based
Description: (§1) A representative cell-proliferation assay protocol using Alamar Blue dye (stored at 4° C., use 20 ul per well) is described hereafter.
(§2) 96-Well Plate Setup and Compound Treatment
(§3) a. Split and trypsinize cells.
(§4) b. Count cells using hemocytometer.
(§5) c. Plate 4,000-5,000 cells per well in 100 μl of medium and seed into a 96-well plate according to the following plate layout. Add cell culture medium only to wells B10 to B12. Wells B1 to B9 have cells but no compound added.
(§6) d. Add 100 μl of 2× drug dilution to each well in a concentration shown in the plate layout above. At the same time, add 100 μl of media into the control wells (wells 1310 to B12). Total volume is 200 μl/well.
(§7) e. Incubate four (4) days at 37° C., 5% CO2 in a humidified incubator.
(§8) f. Add 20 μl Alamar Blue reagent to each well.
(§9) g. Incubate for four (4) hours at 37° C., 5% CO2 in a humidified incubator.
(§10) h. Record fluorescence at an excitation wavelength of 544 nm and emission wavelength of 590 nm using a microplate reader.
(§11) In the assays, cells are cultured with a test compound for approximately four days, the dye is then added to the cells and fluorescence of […] dye is detected after approximately four hours. Different types of cells can be utilized in the assays (e.g., HCT-116 human colorectal carcinoma cells, PC-3 human prostatic cancer cells and MiaPaca human pancreatic carcinoma cells).

[2] = test system: K-562; experiment: Alamar Blue cell proliferation assay, K-562; format: cell-based; conditions: Homo sapiens
Description: as §1, §2, §3, §4, §5, §6, §7, §8, §9, §10, §11

[3] = test system: MV-4-11; experiment: Alamar Blue cell proliferation assay, MV-4-11; format: cell-based; conditions: Homo sapiens
Description: as §1, §2, §3, §4, §5, §6, §7, §8, §9, §10, §11

[4] = test system: MDAMB-231; experiment: Alamar Blue cell proliferation assay, MDAMB-231; format: cell-based; conditions: Homo sapiens, MDA-MB-231, Table 3, read-out: AB: MDAMB-231
Description: as §1, §2, §3, §4, §5, §6, §7, §8, §9, §10, §11

[5] = test system: PC-3 human prostatic cancer cells; experiment: Alamar Blue cell proliferation assay, PC3; format: cell-based
Description: as §1, §2, §3, §4, §5, §6, §7, §8, §9, §10, §11

[6] = biological target: recombinant PIM-1 (Homo sapiens, UniProt P11309); experiment: PIM-1 kinase assay (radiometric, 15 uM ATP, DMSO 4%); format: biochemical; conditions: for inhibition at 0.5 µM: Table 5, compound at 500 nM, read-out: PIM1: % inh 500 nM
[7] = test system: HCT-116 human colorectal carcinoma cells; experiment: Alamar Blue cell proliferation assay, HCT-116; format: cell-based; conditions: Table 5, read-out: AB: HCT-116 IC50
Description: as §1, §2, §3, §4, §5, §6, §7, §8, §9, §10, §11

[8] = MIA PaCa-2, Table 3, read-out: AB: MiaPaCa
[9] = K562, Table 3, read-out: AB: K-562
[10] = MV4-11, Table 3, read-out: AB: MV-4-11
[11] = Table 3, DMSO 4%, read-out: PIM1: IC50 (DMSO 4%)
[12] = MIA PaCa-2, Table 5, read-out: AB: MiaPaCa IC50
[13] = K562, Table 5, read-out: AB: K-562 IC50
[14] = MV4-11, Table 5, read-out: AB: MV-4-11 IC50
[15] = Table 5, read-out: AB: PC3 IC50

Sequence of recombinant PIM-1 (P11309 whole entry): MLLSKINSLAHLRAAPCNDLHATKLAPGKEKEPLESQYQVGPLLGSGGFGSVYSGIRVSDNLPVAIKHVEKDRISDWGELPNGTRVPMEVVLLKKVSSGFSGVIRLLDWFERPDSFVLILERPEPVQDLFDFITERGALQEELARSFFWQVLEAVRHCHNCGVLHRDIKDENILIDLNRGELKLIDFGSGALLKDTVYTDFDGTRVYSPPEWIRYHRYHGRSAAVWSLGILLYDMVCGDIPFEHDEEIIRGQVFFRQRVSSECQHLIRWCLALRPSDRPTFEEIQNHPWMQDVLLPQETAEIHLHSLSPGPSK

Row | Compound | IC50 ([5]; Table 3, read-out: AB: PC3) [µM] | IC50 [1, 12] [µM] | IC50 [7] [µM] | IC50 [2, 13] [nM] | IC50 [3, 14] [nM] | inhibition at 0.5 µM [6] [%] | IC50 [5, 15] [µM] | other results
1 | CC/C(=C1\C(=O)Nc2ccc(Cl)cc21)c1ccc(-c2cccc(C(=O)N3CCCN(C)CC3)c2)o1 | > 30 | – | – | – | – | – | – | IC50 [1, 8]: 0.302 µM; IC50 [2, 9]: 153 nM; IC50 [3, 10]: 109 nM; IC50 [4]: > 10 µM
2 | O=C1Nc2ccc(Cl)cc2/C1=C\c1ccc(-c2ccc(OCCN3CCOCC3)cc2)o1 | > 30 | – | – | – | – | – | – | IC50 [1, 8]: > 10 µM; IC50 [2, 9]: > 10000 nM; IC50 [3, 10]: > 10000 nM; IC50 [4]: > 10 µM; IC50 [6, 11]: < 1000 nM
3 | O=C1Nc2ccc(Cl)cc2/C1=C\c1ccc(-c2cccc(-c3nnc[nH]3)c2)o1 | > 30 | – | – | – | – | – | – | IC50 [1, 8]: > 10 µM; IC50 [2, 9]: > 10000 nM; IC50 [3, 10]: > 10000 nM; IC50 [4]: > 10 µM; IC50 [6, 11]: < 1000 nM
4 | O=C1Nc2ccc(Cl)cc2/C1=C\c1ccc(-c2cccc(C(=O)N3CCCNCC3)c2)o1 | 9.62 | – | – | – | – | – | – | IC50 [1, 8]: 0.815 µM; IC50 [2, 9]: 342 nM; IC50 [4]: 3.15 µM
5 | O=C1Nc2ccc(Cl)cc2/C1=C/c1ccc(-c2cnn(CCN3CCOCC3)c2)o1 | > 30 | – | – | – | – | – | – | IC50 [1, 8]: > 10 µM; IC50 [2, 9]: 2320 nM; IC50 [3, 10]: 198 nM; IC50 [4]: > 10 µM; IC50 [6, 11]: < 1000 nM
6 | CS(=O)(=O)Nc1ccc(-c2ccc(/C=C3\C(=O)Nc4ccc(Cl)cc43)o2)cc1 | 11 | – | – | – | – | – | – | IC50 [1, 8]: > 10 µM; IC50 [2, 9]: 2880 nM; IC50 [3, 10]: 2220 nM; IC50 [4]: > 10 µM; IC50 [6, 11]: < 1000 nM
7 | NC(=O)c1ccc(-c2ccc(/C=C3\C(=O)Nc4ccc(Cl)cc43)o2)cc1 | > 30 | – | – | – | – | – | – | IC50 [1, 8]: > 10 µM; IC50 [2, 9]: > 10000 nM; IC50 [4]: > 10 µM; IC50 [6, 11]: < 1000 nM
8 | CN1CCCN(C(=O)c2cccc(-c3ccc(/C=C4/C(=O)Nc5ccc(F)cc54)o3)c2)CC1 | > 10 | – | – | – | – | – | – | IC50 [6, 11]: < 1000 nM
9 | NS(=O)(=O)c1ccc(-c2ccc(/C=C3/C(=O)Nc4ccc(Cl)cc43)o2)cc1 | > 10 | – | – | – | – | – | – | IC50 [6, 11]: < 1000 nM
10 | COC(=O)c1cccc(-c2coc(/C=C3/C(=O)Nc4ccccc43)c2)c1 | – | 4.34 | 2.33 | 1310 | > 10000 | -18.4 | 1.89 | –
11 | CN1CCCC(NC(=O)c2cccc(-c3coc(/C=C4/C(=O)Nc5ccccc54)c3)c2)C1 (stereo not drawn) | – | > 10 | 4.31 | > 10000 | 315 | -22.7 | > 10 | –
12 | CN1CCCCC1CNC(=O)c1cccc(-c2coc(/C=C3/C(=O)Nc4ccccc43)c2)c1 (stereo not drawn) | – | 2.4 | 2.49 | 99 | 120 | -28.9 | 1.65 | –
13 | CN(C)C1CCN(C(=O)c2cccc(-c3coc(/C=C4/C(=O)Nc5ccccc54)c3)c2)CC1 | – | 9.37 | 7.01 | 77 | 2140 | -38.8 | > 10 | –
14 | CCN(CC)CCNC(=O)c1cccc(-c2coc(/C=C3/C(=O)Nc4ccccc43)c2)c1 | – | 9.23 | 7.82 | > 10000 | 761 | -10.9 | > 10 | –
15 | Cn1cncc1CNC(=O)c1cccc(-c2coc(/C=C3/C(=O)Nc4ccccc43)c2)c1 | – | > 10 | > 10 | > 10000 | 998 | -14.6 | > 10 | –
16 | O=C1Nc2ccccc2/C1=C\c1cc(-c2cccc(C(=O)NCc3ccncc3)c2)co1 | – | > 10 | > 10 | > 10000 | 168 | -4.22 | > 10 | –
17 | CN1CCCN(C(=O)c2cccc(-c3ccc(CC4C(=O)Nc5ccc(Cl)cc54)o3)c2)CC1 (stereo not drawn) [Compound 197] | – | – | – | – | – | – | – | IC50 ([6]; Table 1, given for compounds with IC50 at or below 2 micromolar, 15 uM ATP, read-out: PIM-1 IC50): < 1000 nM
18 | CN1CCCN(C(=O)c2cccc(-c3ccc(CC4C(=O)Nc5ccc(Cl)cc54)o3)c2)CC1 (stereo not drawn) [drawing 213] | – | – | – | – | – | – | – | IC50 ([1]; MIA PaCa-2, Table 2, read-out: AB: MiaPaCa): 0.559 µM; IC50 ([2]; K562, Table 2, read-out: AB: K-562): 240 nM; IC50 ([6]; Table 2, read-out: PIM1: IC50): < 100 nM; IC50 ([5]; Table 2, read-out: AB: PC3): 15.4 µM
19 | CCN(CC)CCNC(=O)c1ccc(-c2ccc(/C=C3/C(=O)Nc4ccc(Cl)cc43)o2)cc1 [drawing 216] | – | – | – | – | – | – | – | IC50 [1, 8]: > 10 µM; IC50 [2, 9]: > 10000 nM; IC50 [3, 10]: > 1000 nM; IC50 [4]: > 10 µM; IC50 [6, 11]: < 1000 nM
20 | Nc1cccc(-c2ccc(/C=C3/C(=O)Nc4ccccc43)o2)c1 [drawing 234] | – | – | – | – | – | – | – | IC50 ([2]; K562, Table 4, read-out: AB: K-562): 5130 nM; IC50 ([3]; MV4-11, Table 4, read-out: AB: MV-4-11): 2440 nM; IC50 ([6]; Table 4, 15 um ATP, read-out: PIM1: IC50 (15 um ATP)): 992 nM
21 | CN1CCCC(NC(=O)c2cccc(-c3coc(/C=C4/C(=O)Nc5ccc(F)cc54)c3)c2)C1 (stereo not drawn) [drawing 249] | – | > 10 | 4.65 | 3120 | 1010 | 6.11 | 7 | –
22 | CCN1CCCC1CNC(=O)c1cccc(-c2coc(/C=C3/C(=O)Nc4ccc(F)cc43)c2)c1 (stereo not drawn) [drawing 250] | – | > 10 | 5.23 | 941 | 485 | 17.1 | > 10 | –
23 | Cn1cncc1CNC(=O)c1cccc(-c2coc(/C=C3/C(=O)Nc4ccc(F)cc43)c2)c1 [drawing 252] | – | > 10 | > 10 | > 10000 | 1380 | 12.7 | > 10 | –
24 | CN1CCCCC1CNC(=O)c1cccc(-c2coc(/C=C3/C(=O)Nc4ccc(F)cc43)c2)c1 (stereo not drawn) [drawing 253] | – | > 10 | 4.47 | 1650 | 627 | 9.42 | > 10 | –
25 | CCN(CC)CCNC(=O)c1cccc(-c2coc(/C=C3/C(=O)Nc4ccc(F)cc43)c2)c1 [drawing 254] | – | > 10 | 3.6 | 2440 | 271 | 11.5 | > 10 | –
26 | O=C1Nc2ccc(F)cc2/C1=C\c1cc(-c2cccc(C(=O)NCc3ccncc3)c2)co1 [drawing 255] | – | > 10 | > 10 | > 10000 | 1570 | -19.1 | – | –
27 | CN(C)C1CCN(C(=O)c2cccc(-c3coc(/C=C4/C(=O)Nc5ccc(F)cc54)c3)c2)CC1 [drawing 256] | – | > 10 | 3.85 | 3700 | 516 | 10.8 | 7.53 | –
